Results published in PMC9030691, “Toxicokinetics of β-Amanitin in Mice and In Vitro Drug–Drug Interaction Potential” (Pharmaceutics, 2022).
Where two headings read alike, the source gives them in different places.

Columns and labels:
rats = details: intraperitoneal injection; cited from earlier work
Text: (§1) The Amanitaceae family is responsible for nearly 95% of all fatal mushroom poisonings, and amatoxins are the primary threats to human life. The content of amatoxins varies by Amanita species, but α- and β-amanitin are the most abundant substances. […] Among amatoxins, α-amanitin i ...

mice = details: intraperitoneal injection; cited from earlier work
Text: as §1

MATE2-K = MATE2-K (Homo sapiens, UniProt Q86VL8); assay: MATE2-K transport inhibition in HEK293-MATE2-K cells; format: in vitro ADME; parameters: host or cells: HEK293 (TransportoCells); details: 0.1 μM probe substrate, HBSS pH 7.4, β-amanitin 0.01–250 μM (methods), n = 3, read-out: IC50, MATE2-K-mediated [14C]metformin uptake
Chain of MATE2-K (Q86VL8 1-566 isoform Q86VL8-3): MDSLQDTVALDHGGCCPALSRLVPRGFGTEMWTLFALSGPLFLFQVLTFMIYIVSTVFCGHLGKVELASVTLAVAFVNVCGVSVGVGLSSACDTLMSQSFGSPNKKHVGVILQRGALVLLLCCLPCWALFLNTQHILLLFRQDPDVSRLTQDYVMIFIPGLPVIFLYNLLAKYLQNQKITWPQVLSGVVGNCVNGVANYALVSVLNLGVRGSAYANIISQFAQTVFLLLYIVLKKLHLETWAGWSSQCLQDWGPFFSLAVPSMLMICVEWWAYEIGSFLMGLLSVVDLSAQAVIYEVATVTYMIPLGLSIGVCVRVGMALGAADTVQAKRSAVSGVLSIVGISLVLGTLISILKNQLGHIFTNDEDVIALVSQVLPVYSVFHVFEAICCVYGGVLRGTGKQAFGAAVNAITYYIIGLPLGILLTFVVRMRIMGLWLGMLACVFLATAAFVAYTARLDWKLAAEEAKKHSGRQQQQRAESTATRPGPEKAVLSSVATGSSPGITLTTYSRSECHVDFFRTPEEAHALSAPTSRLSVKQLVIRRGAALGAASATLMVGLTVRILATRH
Method: β-amanitin inhibition (IC50 values) of OCT1, OCT2, MATE2-K, OAT1, OAT3, Na^+/taurocholate co-transporting polypeptide (NTCP), OATP1B1, OATP1B3, P-glycoprotein (P-gp), and breast-cancer-resistant protein (BCRP) transport activities were assessed in HEK293 cells overexpressing individual transporters (TransportoCells™, Corning), LLC-PK1-P-gp (Corning), or LLC-PK1-BCRP (obtained from Dr. A.H. Schinkel, Netherlands Cancer Institute; Amsterdam, The Netherlands), as previously reported. Each incubation mixture was prepared to a final volume of 100 μL HBSS (pH 7.4) containing 0.1 μM probe substrates ([^3H]methyl-4-phenylpyridinium for OCT1 and OCT2, [^14C]metformin for MATE2-K, [^3H]p-aminohippuric acid for OAT1, [^3H]estrone-3-sulfate for OAT3, OATP1B1 and BCRP, [^3H]taurocholate for NTCP, [^3H]17-β-D-estradiol-glucuronide for OATP1B3, [^3H]digoxin for P-gp) and various concentrations of β-amanitin (0.01–250 μM), as previously described.

[1] = Toxicokinetics after oral administration in mice; format: in vivo; details: male ICR mice; for bioavailability / Tmax / Cmax / half-life / AUC(0-inf) / AUC(0-t): mouse; for bioavailability / Tmax / Cmax / AUC(0-inf) / AUC(0-t): plasma; for bioavailability: (dose normalized AUCPO/dose normalized AUCIV) × 100, mean ± SD, read-out: F (oral bioavailability); for Tmax: median with range in parentheses; for Cmax: fasted; for Cmax / AUC(0-inf) / AUC(0-t): LC-HRMS; for Cmax / half-life / AUC(0-inf) / AUC(0-t): mean ± SD; for half-life: plasma elimination half-life; for AUC(0-inf) / AUC(0-t): non-compartmental
Method: The Institutional Animal Care and Use Committee of the Catholic University of Korea (approval number, CUK-IACUC-2021-004; approval date, 21 March 2021) approved the study protocol. Male ICR mice (8 weeks of age, 27.4 ± 2.3 g) were purchased from Orient Bio Inc. (Seongnam, Korea). Mice were kept in plastic cages with unlimited access to a standard mouse diet (Orient Bio) and water before the experiments. For oral administration, mice were fasted for at least 12 h but allowed free access to water.
β-amanitin was dissolved in water and administered to mice by gavage at doses of 2 (n = 7), 5 (n = 9), and 10 (n = 7) mg/kg. Blood samples (approximately 15 μL) were collected from the retro-orbital plexus under light anesthesia with isoflurane at 0.033, 0.083, 0.166, 0.25, 0.5, 0.75, 1, 1.5, 2, 4, 6, and 8 h after drug administration. Plasma samples (5 μL each) were harvested by centrifugation at 13,000× g for 3 min at 4 °C and stored at −80 °C until analysis.
Concentrations of β-amanitin in biological samples were evaluated following our previous methodology. The standard calibration curves for β-amanitin in mouse plasma ranged from 0.5 to 500 ng/mL and were linear, with a correlation coefficient of 0.9952. The inter- and intra-day accuracy and precision fell within the acceptance criteria (3.1–14.6% of coefficients of variation (CVs) and 92.5–115.0% of accuracy). The extraction recovery and matrix effect of this analytical method were 82.8–88.9% and 93.0–98.6%.
An aliquot (5 μL) of plasma sample was mixed with 15 μL of 4′-hydroxydiclofenac (internal standard (IS), 5 ng/mL) in methanol and vortexed for 2 min. The mixture was centrifuged at 13,000× g at 4 °C for 5 min, and the supernatant was then transferred to an autosampler vial. An aliquot (5 μL) was injected into the LC-HRMS system for analysis.
The toxicokinetic parameters of β-amanitin were analyzed by non-compartmental analyses (WinNonlin, Pharsight; Mountain View, CA, USA) (Table 1). Data were expressed as mean ± standard deviations (SD). Comparisons of data between groups were performed using one-way ANOVA or Student t-test. Values of p < 0.05 were considered statistically significant.

CYP2C9 = biological target: T1, CYP2C9 (Homo sapiens, UniProt P11712); assay: CYP2C9 inhibition in human liver microsomes; format: in vitro ADME; details: ultrapooled human liver microsomes 0.2 mg/mL, 10 μM diclofenac, β-amanitin 0.1–100 μM, pH 7.4, 37 °C, 15 min, LC-MS/MS, n = 3, read-out: IC50, CYP2C9 diclofenac 4′-hydroxylase
T1 construct: from tissue; host or cells: ultrapooled human liver microsomes
T1 sequence (P11712 whole entry): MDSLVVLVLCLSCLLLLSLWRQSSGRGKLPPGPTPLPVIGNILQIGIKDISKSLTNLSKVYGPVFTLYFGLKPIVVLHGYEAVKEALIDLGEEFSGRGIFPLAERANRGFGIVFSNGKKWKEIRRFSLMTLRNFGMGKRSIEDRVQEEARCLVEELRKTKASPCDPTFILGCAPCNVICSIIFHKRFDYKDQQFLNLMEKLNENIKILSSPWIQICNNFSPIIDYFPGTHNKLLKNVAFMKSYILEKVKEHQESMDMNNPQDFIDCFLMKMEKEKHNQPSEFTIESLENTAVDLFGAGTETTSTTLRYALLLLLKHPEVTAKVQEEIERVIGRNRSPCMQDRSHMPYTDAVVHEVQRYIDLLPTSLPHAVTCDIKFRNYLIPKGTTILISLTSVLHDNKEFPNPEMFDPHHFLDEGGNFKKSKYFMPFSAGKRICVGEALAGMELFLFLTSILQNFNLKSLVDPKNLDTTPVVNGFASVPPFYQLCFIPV
Method: β-amanitin inhibition (IC50 values) of CYP1A2, CYP2A6, CYP2B6, CYP2C8, CYP2C9, CYP2C19, CYP2D6, and CYP3A4 enzyme activities in HLMs were evaluated using LC-MS/MS and CYP substrates as previously described. Each incubation mixture was made up to a volume of 100 μL including HLMs (0.2 mg/mL), 50 mM potassium phosphate buffer (pH 7.4), 1.0 mM NADPH, 10 mM magnesium chloride, various concentrations of β-amanitin (0.1–100 μM), a cocktail of seven CYP probe substrates (50 μM phenacetin for CYP1A2, 2.5 μM coumarin for CYP2A6, 2 μM amodiaquine for CYP2C8, 10 μM diclofenac for CYP2C9, 100 μM [S]-mephenytoin for CYP2C19, 5 μM bufuralol for CYP2D6, and 2.5 μM midazolam for CYP3A4 in acetonitrile), or 50 μM bupropion for CYP2B6. The reactions were initiated with NADPH followed by incubation in a shaking water bath at 37 °C for 15 min with or without 30 min preincubation with NADPH. Reactions were stopped with 50 μL of ice-cold methanol containing ^13C2, ^15N-acetaminophen and d9-1′-hydroxybufuralol (ISs). Incubation mixtures were centrifuged at 13,000× g for 8 min at 4 °C. An aliquot (5 μL) of the supernatant from the reaction mixture was analyzed by the previous LC-MS/MS method.

[2] = oral 2, 5 and 10 mg/kg, range of the dose-group means

α-amanitin [reference compound]
Lethal dose (rats): 4.0 mg/kg
Lethal dose (mice): 0.3 to 0.6 mg/kg

CC[C@H](C)[C@@H]1NC(=O)CNC(=O)[C@@H]2Cc3c([nH]c4cc(O)ccc34)[S@+]([O-])C[C@H](NC(=O)CNC1=O)C(=O)N[C@@H](CC(=O)O)C(=O)N1C[C@H](O)C[C@H]1C(=O)N[C@@H]([C@@H](C)[C@@H](O)CO)C(=O)N2 [β-amanitin]
IC50 (MATE2-K): 2.1 µM
Tmax, range over the oral doses ([1]; oral 2, 5 and 10 mg/kg, range of individual values): 10~120 min
Absolute (oral) bioavailability, range over the oral doses [1, 2]: 7.3–9.4%
t1/2, range over the oral doses [1, 2]: 105.0~132.0 min
bioavailability ([1]; oral gavage 2 mg/kg, n = 7): 9.4 ± 4.9%
Tmax ([1]; oral gavage 2 mg/kg, n = 7): 1 h
bioavailability ([1]; oral gavage 5 mg/kg, n = 9): 8.1 ± 4.3%
Tmax ([1]; oral gavage 5 mg/kg, n = 9): 1.5 h
bioavailability ([1]; oral gavage 10 mg/kg, n = 7): 7.3 ± 3.1%
Tmax ([1]; oral gavage 10 mg/kg, n = 7): 1 h
Cmax ([1]; oral gavage 2 mg/kg in water, n = 7): 67.1 ± 18.6 ng/mL
Cmax ([1]; oral gavage 5 mg/kg in water, n = 9): 140 ± 116 ng/mL
Cmax ([1]; oral gavage 10 mg/kg in water, n = 7): 360 ± 385 ng/mL
half-life ([1]; oral gavage 2 mg/kg, n = 7): 1.75 ± 1.57 h
AUC(0-inf) ([1]; oral gavage 2 mg/kg, n = 7): 191 ng·h/mL
AUC(0-t) ([1]; oral gavage 2 mg/kg, n = 7): 181 ng·h/mL
half-life ([1]; oral gavage 5 mg/kg, n = 9): 2.2 ± 0.838 h
AUC(0-inf) ([1]; oral gavage 5 mg/kg, n = 9): 438 ng·h/mL
AUC(0-t) ([1]; oral gavage 5 mg/kg, n = 9): 391 ng·h/mL
half-life ([1]; oral gavage 10 mg/kg, n = 7): 2.17 ± 1.31 h
AUC(0-inf) ([1]; oral gavage 10 mg/kg, n = 7): 810 ng·h/mL
AUC(0-t) ([1]; oral gavage 10 mg/kg, n = 7): 698 ng·h/mL
IC50 (CYP2C9; with 30 min NADPH preincubation): > 100 µM
IC50 (CYP2C9; without NADPH preincubation): > 100 µM
